In patent US20230241196A1, “GONORRHEA SUBUNIT VACCINE” (priority 2020, published 2023):
Values after ≈ are worked out from the molar mass of the structure shown. Marks after values point to notes of the source that are not given here.

B1: rMetQ: untagged recombinant N. gonorrhoeae FA1090 MetQ lacking the lipoprotein signal peptide; sequence in FIG. 8 (SEQ ID NO: 4) (protein, listed as Neisseria gonorrhoeae)
chain: GAMEKDSAPAASAAAPSADNGAAKKEIVFGTTVGDFGDMVKEQIQAELEKKGYTVKLVEFTDYVRPNLALAEGELDINVFQHKPYLDDFKKEHNLDITEAFQVPTAPLGLYPGKLKSLEEVKDGSTVSAPNDPSNFARALVMLNELGWIKLKDGINPLTASKADIAENLKNIKIVELEAAQLPRSRADVDFAVVNGNYAISSGMKLTEALFQEPSFAYVNWSAVKTADKDSQWLKDVTEAYNSDAFKAYAHKRFEGYKYPAAWNEGAAKKLAAA

How the values were obtained:
[1] = system: complementation strain ΔmetQ/Plac::metQ (FA1090); assay: Etest antibiotic susceptibility, complementation strain; format: cell-based, Neisseria gonorrhoeae; conditions: ~22 h, MIC repeated at least twice of three
Text: (§1) Prokaryotic lipoproteins play versatile functions ranging from cell envelope stability to nutrient acquisition, substrate binding for ABC transporter systems, modulation of the host immune system, signal transduction, and virulence (Kovacs-Simon et al.Infect Immun 79, 548-561 (2011); Hayashi and Wu, PLoS pathogens 14, e1007081 (2018)). […] The henotypes associated with deletion of metQ were explored. A null mutant in ngo2139 ΔmetQ) and its complemented mutant ΔmetQ/Plac::metQ in Ng FA1090 were constructed (Zielke et al., Mol Cell Proteomics 15, 2338-2355 (2016)). It was first examined whether complete elimination of MetQ affects cell envelope homeostasis by exposing bacteria to seven antibiotics with different mechanisms of action using Etest assays.
(§2) Etest antimicrobial sensitivity assessments: The susceptibility of WT FA1090, isogenic knockout ΔmetQ, and complementation strain ΔmetQ/Plac: :metQ to seven antimicrobial compounds was assessed by Etests as previously (Zielke et al., PLoS pathogens 14, e1007081 (2018)), according to manufacturer’s instructions. Briefly, non-piliated colonies of each strain were suspended in GCBL to a turbidity equivalent to that of a 0.5 McFarland standard and spread on 150 mm tissue culture dishes filled with 50 mL GCB to a thickness of 4 mm. Etest strips were placed on the agar surface and plates were cultured for ~22 h, at which point the MICs were determined. Sensitivity assessments were performed three times, and MIC values that repeated at least twice are reported.

WT FA1090 = assay: Etest antibiotic susceptibility, WT strain; format: cell-based, Neisseria gonorrhoeae; conditions: ~22 h, MIC repeated at least twice of three, unit assumed
Procedure: The henotypes associated with deletion of metQ were explored. […] It was first examined whether complete elimination of MetQ affects cell envelope homeostasis by exposing bacteria to seven antibiotics with different mechanisms of action using Etest assays.
Briefly, non-piliated colonies of each strain were suspended in GCBL to a turbidity equivalent to that of a 0.5 McFarland standard and spread on 150 mm tissue culture dishes filled with 50 mL GCB to a thickness of 4 mm. Etest strips were placed on the agar surface and plates were cultured for ~22 h, at which point the MICs were determined. Sensitivity assessments were performed three times, and MIC values that repeated at least twice are reported.

[2] = system: isogenic knockout ΔmetQ (FA1090); assay: Etest antibiotic susceptibility, ΔmetQ knockout; format: cell-based, Neisseria gonorrhoeae; conditions: ~22 h, MIC repeated at least twice of three, unit assumed
Text: as §1, §2

rMetQ = assay: Pilot immunogenicity: immunoblot of rMetQ with serum of immunized mice; format: in vivo, Neisseria gonorrhoeae; conditions: BALB/c mice, groups of 5; subcutaneous prime, three intranasal boosts
Procedure: First, the immunogenicity of rMetQ was tested by immunizing groups of 5 BALB/c mice with rMetQ, rMetQ-CpG, CpG, or PBS using a subcutaneous prime immunization, followed by a regimen of three intranasal boost doses. A robust, single protein band corresponding to the molecular weight of rMetQ (~30 kDa) was detected in immunoblots with serum derived from mice immunized with rMetQ alone. […] Based on these encouraging results, large-scale immunization/challenge experiments were performed. […] Vaginal washes were collected after the second boost, and antigen-specific antibody titers were assessed in serum collected 14 days after the third boost. […] Bacterial clearance was assessed by enumerating Ng CFUs present in vaginal washes on days 1, 3, 5, and 7 post-infection (FIG. 3C). […]
Densitometry analysis: The expression of MetQ during WT FA1090 infection in female BALB/c mice and intensities of protein bands detected in serum specificity studies were determined by densitometry using FIJI software (Schindelin et al., Nature methods 9, 676-682 (2012)). The amount of MetQ on day 1 post-infection was arbitrarily set to 1 and the protein abundance on days 3 and 5 is expressed relative to the MetQ cellular pool detected on day 1.

Row | Molecule | MIC (Etest) [1] | MIC (Etest) (WT FA1090) | MIC (Etest) [2] | MIC (Etest) ([1]; unit assumed) | Immunoblot intensity of rMetQ band probed with serum (rMetQ)
1 | CC[C@H]1OC(=O)[C@H](C)[C@@H](O[C@H]2C[C@@](C)(OC)[C@@H](O)[C@H](C)O2)[C@H](C)[C@@H](O[C@@H]2O[C@H](C)C[C@H](N(C)C)[C@H]2O)[C@](C)(O)C[C@@H](C)CN(C)[C@H](C)[C@@H](O)[C@]1(C)O [Azithromycin] | 0.5^b | 0.032 µg/mL (≈ 0.0427 µM) | 0.032 µg/mL (≈ 0.0427 µM) |  | 
2 | CC1(C)S[C@@H]2[C@H](NC(=O)Cc3ccccc3)C(=O)N2[C@H]1C(=O)O [Benzylpenicillin] |  | 0.064 µg/mL (≈ 0.191 µM) | 0.064 µg/mL (≈ 0.191 µM) | 0.064 µg/mL (≈ 0.191 µM) | 
3 | CO/N=C(\C(=O)N[C@@H]1C(=O)N2C(C(=O)O)=C(COC(C)=O)CS[C@H]12)c1csc(N)n1 [Cefotaxime] |  | 0.004 µg/mL (≈ 0.00878 µM) | 0.004 µg/mL (≈ 0.00878 µM) | 0.008 µg/mL (≈ 0.0176 µM) | 
4 | CN[C@H](CC(C)C)C(=O)N[C@H]1C(=O)N[C@@H](CC(N)=O)C(=O)N[C@H]2C(=O)N[C@H]3C(=O)N[C@H](C(=O)N[C@H](C(=O)O)c4cc(O)cc(O)c4-c4cc3ccc4O)[C@H](O)c3ccc(c(Cl)c3)Oc3cc2cc(c3O[C@@H]2O[C@H](CO)[C@@H](O)[C@H](O)[C@H]2O[C@H]2C[C@](C)(N)[C@H](O)[C@H](C)O2)Oc2ccc(cc2Cl)[C@H]1O [Vancomycin] |  | 8 µg/mL (≈ 5.52 µM) | 8 µg/mL (≈ 5.52 µM) | 8 µg/mL (≈ 5.52 µM) | 
5 | Polymyxin B |  | 64 µg/mL | 64 µg/mL | 64 µg/mL | 
6 | B1 |  |  |  |  | 44,405 relative intensity units
